Measured values taken from article PMC9481636, “Mechanism of action of non-camptothecin inhibitor Genz-644282 in topoisomerase I inhibition” (Communications Biology, 2022).
Substitutions are numbered along the chain they refer to.

Columns and labels:
Type in all cases: biochemical
[1] = molecular target: T1, Topoisomerase I (TOP1) (Homo sapiens, UniProt P11387, N722A); experiment: nicked-DNA accumulation/relaxation assay with purified recombinant TOP1 N722A
T1 construct: 6×His-tagged TOP1 (baculovirus, High Five cells)
T1 sequence (P11387 2-765 N722A): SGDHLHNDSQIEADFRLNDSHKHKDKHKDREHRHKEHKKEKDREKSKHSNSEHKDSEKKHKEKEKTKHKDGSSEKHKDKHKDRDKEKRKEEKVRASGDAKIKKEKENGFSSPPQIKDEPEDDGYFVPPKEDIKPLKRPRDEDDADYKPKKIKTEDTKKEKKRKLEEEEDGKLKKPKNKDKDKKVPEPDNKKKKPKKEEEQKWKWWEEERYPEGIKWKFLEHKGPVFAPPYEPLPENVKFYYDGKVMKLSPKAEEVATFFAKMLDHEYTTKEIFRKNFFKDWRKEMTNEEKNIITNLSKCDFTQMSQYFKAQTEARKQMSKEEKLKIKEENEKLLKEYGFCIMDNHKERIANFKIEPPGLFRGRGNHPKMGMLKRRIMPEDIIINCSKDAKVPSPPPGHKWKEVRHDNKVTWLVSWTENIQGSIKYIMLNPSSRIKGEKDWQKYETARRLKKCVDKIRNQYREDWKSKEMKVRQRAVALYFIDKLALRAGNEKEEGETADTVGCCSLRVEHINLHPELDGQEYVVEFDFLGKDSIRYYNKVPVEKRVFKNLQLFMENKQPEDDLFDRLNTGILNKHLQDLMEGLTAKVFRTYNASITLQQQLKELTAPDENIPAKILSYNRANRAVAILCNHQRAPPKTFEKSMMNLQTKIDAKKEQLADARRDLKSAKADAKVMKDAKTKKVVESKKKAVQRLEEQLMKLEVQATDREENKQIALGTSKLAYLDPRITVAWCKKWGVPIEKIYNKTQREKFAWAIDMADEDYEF

[2] = molecular target: T2, Topoisomerase I (TOP1) (Homo sapiens, UniProt P11387, N722S); experiment: nicked-DNA accumulation assay with purified recombinant TOP1 N722S, […] Genz
T2 construct: 6×His-tagged TOP1 (baculovirus, High Five cells)
T2 sequence (P11387 2-765 N722S): T1 sequence (P11387 2-765 N722A) with A721S

[3] = molecular target: T3, Topoisomerase I (TOP1) (Homo sapiens, UniProt P11387); experiment: nicked-DNA accumulation/relaxation assay with purified recombinant wild-type TOP1
T3 construct: 6×His-tagged TOP1 (baculovirus, High Five cells)
T3 sequence (P11387 2-765): T1 sequence (P11387 2-765 N722A) with A721N

## CNCCn1c(=O)c2cc(OC)c(OC)cc2c2cnc3cc4c(cc3c21)OCO4 [Genz, 8,9-dimethoxy-5-(2-N-methylaminoethyl)-2,3-methylenedioxy-5H-dibenzo[c,h][1,6]naphthyridin-6-one]
[1]
  nicked-DNA accumulation/relaxation assay with purified recombinant TOP1 N722A: accumulation of nicked DNA on N722A and N722S proteins after treatment with Genz was higher than that on the wild type
[2]
  nicked-DNA accumulation assay with purified recombinant TOP1 N722S, 10 μM Genz: The enhanced accumulation of nicked DNA appeared only in the N722S mutant after treatment with Genz
[3]
  nicked-DNA accumulation/relaxation assay with purified recombinant wild-type TOP: slight accumulation of nicked DNA was also observed for the wild type
